From PubChem BioAssay (NCI)
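96-well plates; 48 h exposure; 5 concentrations. Endpoints by linear interpolation between flanking doses. Not reached: highest tested concentration assigned. TGI: total growth inhibition.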

How the values were obtained:
Assay in all cases: NCI anticancer screen, dose series, 48 h
[1] = tested on: HCC-2998 colon
[2] = tested on: HOP-62 NSCLC
[3] = tested on: NCI-H23 lung
[4] = tested on: EKVX NSCLC
[5] = tested on: IGROV1 ovarian
[6] = tested on: U251 CNS
[7] = tested on: NCI-H460 lung
[8] = tested on: HCT-15 colon
[9] = tested on: HL-60(TB) leukemia
[10] = tested on: SK-MEL-5 melanoma
[11] = tested on: COLO 205 colon
[12] = tested on: CCRF-CEM leukemia
[13] = tested on: KM12 colon
[14] = tested on: SK-MEL-2 melanoma
[15] = tested on: TK-10 renal
[16] = tested on: LXFL 529 NSCLC
[17] = tested on: SNB-75 CNS
[18] = tested on: OVCAR-4 ovarian
[19] = tested on: NCI-H226 lung
[20] = tested on: DMS 273 small cell lung
[21] = tested on: HCT-116 colon
[22] = tested on: OVCAR-8 ovarian
[23] = tested on: SR leukemia
[24] = tested on: A549 NSCLC
[25] = tested on: ACHN renal
[26] = tested on: MOLT-4 leukemia
[27] = tested on: DLD-1 colon
[28] = tested on: KM20L2 colon
[29] = tested on: UO-31 renal
[30] = tested on: RXF-631 renal
[31] = tested on: RXF 393 renal
[32] = tested on: MALME-3M melanoma
[33] = tested on: OVCAR-3 ovarian
[34] = tested on: SK-OV-3 ovarian
[35] = tested on: DMS 114 small cell lung
[36] = tested on: RPMI-8226 leukemia
[37] = tested on: SN12C renal
[38] = tested on: SW-620 colon
[39] = tested on: SF-268 CNS
[40] = tested on: HT29 colon
[41] = tested on: M19-MEL melanoma
[42] = tested on: K-562 leukemia
[43] = tested on: OVCAR-5 ovarian
[44] = tested on: LOX IMVI melanoma
[45] = tested on: SF-539 CNS
[46] = tested on: UACC-62 melanoma
[47] = tested on: A498 renal
[48] = tested on: UACC-257 melanoma
[49] = tested on: SF-295 CNS
[50] = tested on: HOP-92 NSCLC
[51] = tested on: M14 melanoma
[52] = tested on: SNB-19 CNS
[53] = tested on: SNB-78 CNS
[54] = tested on: SK-MEL-28 melanoma
[55] = tested on: XF 498 CNS
[56] = tested on: HOP-18 NSCLC
[57] = tested on: CAKI-1 renal
[58] = tested on: 786-0 renal
[59] = tested on: NCI-H522 lung

`Nc1nc(Cl)cc(NCCCCO)n1` was tested, and the TGI [1] was greater than 100 µM, the TGI [2] was greater than 10 µM and the TGI [3] was greater than 100 µM. For the same compound, the TGI [4] was greater than 100 µM, the TGI [5] was greater than 100 µM and the TGI [6] was greater than 100 µM. It also gave a TGI [7] greater than 100 µM, a TGI [8] greater than 100 µM and a TGI [9] greater than 100 µM. For the same compound, the TGI [10] was greater than 100 µM, the TGI [11] was greater than 100 µM and the TGI [12] was greater than 100 µM. For the same compound, the TGI [13] was greater than 100 µM, the TGI [14] was greater than 100 µM and the TGI [15] was greater than 100 µM. The TGI [16] was greater than 100 µM, the TGI [17] was greater than 100 µM and the TGI [18] was greater than 100 µM. It also gave a TGI [19] greater than 100 µM, a TGI [20] greater than 100 µM and a TGI [21] greater than 100 µM. The TGI [22] was greater than 100 µM, the TGI [23] was greater than 100 µM and the TGI [24] was greater than 100 µM. The TGI [25] was greater than 100 µM, the TGI [26] was greater than 100 µM and the TGI [27] was greater than 100 µM. For the same compound, the TGI [28] was greater than 100 µM, the TGI [29] was greater than 100 µM and the TGI [30] was greater than 100 µM. For the same compound, the TGI [31] was greater than 100 µM, the TGI [32] was greater than 100 µM and the TGI [33] was greater than 10 µM. It also gave a TGI [34] greater than 100 µM, a TGI [35] greater than 100 µM and a TGI [36] greater than 100 µM. For the same compound, the TGI [37] was greater than 100 µM, the TGI [38] was greater than 100 µM and the TGI [39] was greater than 100 µM. It also gave a TGI [40] greater than 100 µM, a TGI [41] greater than 100 µM and a TGI [42] greater than 100 µM. The TGI [43] was greater than 100 µM, the TGI [44] was greater than 100 µM and the TGI [45] was greater than 100 µM. It also gave a TGI [46] greater than 100 µM, a TGI [47] greater than 100 µM and a TGI [48] greater than 100 µM. The TGI [49] was greater than 100 µM, the TGI [50] was greater than 100 µM and the TGI [51] was greater than 10 µM. The TGI [52] was greater than 100 µM, the TGI [53] was greater than 100 µM and the TGI [54] was greater than 100 µM.
With `c1ccc2c(c1)[Se]c1ccccc1[Se]2` the TGI [2] was greater than 100 µM, the TGI [3] was greater than 100 µM and the TGI [5] was greater than 100 µM. The TGI [6] was greater than 100 µM, the TGI [7] was greater than 100 µM and the TGI [9] was greater than 100 µM. It also gave a TGI [10] greater than 100 µM, a TGI [11] greater than 100 µM and a TGI [12] greater than 100 µM. It also gave a TGI [13] greater than 100 µM, a TGI [14] greater than 100 µM and a TGI [15] greater than 100 µM. It also gave a TGI [16] greater than 100 µM, a TGI [17] of 64.9 µM and a TGI [18] of 67.1 µM. It also gave a TGI [19] greater than 100 µM, a TGI [20] greater than 100 µM and a TGI [21] of 72.4 µM. For the same compound, the TGI [22] was greater than 100 µM, the TGI [23] was greater than 100 µM and the TGI [24] was greater than 100 µM. The TGI [25] was greater than 100 µM, the TGI [55] was greater than 100 µM and the TGI [26] was greater than 100 µM. For the same compound, the TGI [27] was greater than 100 µM, the TGI [28] was greater than 100 µM and the TGI [29] was greater than 100 µM. For the same compound, the TGI [56] was 98.6 µM, the TGI [31] was greater than 100 µM and the TGI [32] was greater than 100 µM. For the same compound, the TGI [33] was greater than 100 µM, the TGI [57] was greater than 100 µM and the TGI [58] was greater than 100 µM. For the same compound, the TGI [34] was greater than 100 µM, the TGI [35] was greater than 100 µM and the TGI [36] was greater than 100 µM. It also gave a TGI [37] greater than 100 µM, a TGI [59] greater than 100 µM and a TGI [38] greater than 100 µM. It also gave a TGI [39] greater than 100 µM, a TGI [40] greater than 100 µM and a TGI [41] greater than 100 µM. For the same compound, the TGI [42] was greater than 100 µM, the TGI [43] was greater than 100 µM and the TGI [44] was greater than 100 µM. For the same compound, the TGI [45] was greater than 100 µM, the TGI [46] was greater than 100 µM and the TGI [47] was greater than 100 µM. For the same compound, the TGI [48] was greater than 100 µM, the TGI [49] was 73.8 µM and the TGI [50] was 76.3 µM. For the same compound, the TGI [51] was greater than 100 µM, the TGI [52] was greater than 100 µM and the TGI [53] was greater than 100 µM. It also gave a TGI [54] greater than 100 µM.
Work on `CC1(Br)C(=O)NC(=O)N([C@H]2C[C@H](O)[C@@H](CO)O2)C1N=[N+]=[N-]` (stereo partly drawn) yielded a TGI [1] greater than 100 µM, a TGI [2] greater than 100 µM and a TGI [3] greater than 100 µM. For the same compound, the TGI [4] was greater than 100 µM, the TGI [5] was greater than 100 µM and the TGI [6] was greater than 100 µM. For the same compound, the TGI [7] was greater than 100 µM, the TGI [8] was greater than 100 µM and the TGI [9] was greater than 100 µM. It also gave a TGI [10] greater than 100 µM, a TGI [11] greater than 100 µM and a TGI [12] greater than 100 µM. It also gave a TGI [13] greater than 100 µM, a TGI [14] greater than 100 µM and a TGI [15] greater than 100 µM. For the same compound, the TGI [16] was greater than 100 µM, the TGI [17] was greater than 100 µM and the TGI [18] was greater than 100 µM. For the same compound, the TGI [19] was greater than 100 µM, the TGI [20] was greater than 100 µM and the TGI [21] was greater than 100 µM. The TGI [22] was greater than 100 µM, the TGI [23] was greater than 100 µM and the TGI [24] was greater than 100 µM. For the same compound, the TGI [25] was greater than 100 µM, the TGI [55] was greater than 100 µM and the TGI [26] was greater than 100 µM. It also gave a TGI [27] greater than 100 µM, a TGI [28] greater than 100 µM and a TGI [29] greater than 100 µM. It also gave a TGI [56] greater than 100 µM, a TGI [30] greater than 100 µM and a TGI [31] greater than 100 µM. For the same compound, the TGI [32] was greater than 100 µM, the TGI [33] was greater than 100 µM and the TGI [57] was greater than 100 µM. For the same compound, the TGI [58] was greater than 100 µM, the TGI [34] was greater than 100 µM and the TGI [35] was greater than 100 µM. It also gave a TGI [36] greater than 100 µM, a TGI [37] greater than 100 µM and a TGI [59] greater than 100 µM. The TGI [38] was greater than 100 µM, the TGI [39] was greater than 100 µM and the TGI [40] was greater than 100 µM. It also gave a TGI [41] greater than 100 µM, a TGI [42] greater than 100 µM and a TGI [43] greater than 100 µM. For the same compound, the TGI [44] was greater than 100 µM, the TGI [45] was greater than 100 µM and the TGI [46] was greater than 100 µM. For the same compound, the TGI [47] was greater than 100 µM, the TGI [48] was greater than 100 µM and the TGI [49] was greater than 100 µM. The TGI [50] was greater than 100 µM, the TGI [51] was greater than 100 µM and the TGI [52] was greater than 100 µM. For the same compound, the TGI [53] was greater than 100 µM and the TGI [54] was greater than 100 µM.
